Data published in PMC4948780, “PARP Inhibitors in Clinical Use Induce Genomic Instability in Normal Human Cells” (PLoS ONE, 2016).
Values joined by “and” are separate entries in the source; they are usually repeats but may differ in a detail not shown here. Identical values can stand only once. Like-named read-outs stand apart in the source and are kept apart here.

Key:
EBV-BL [1] = assay: Sister chromatid exchange (SCE) assay, BrdU differential staining; type: cell-based, human
Description: (§1) Human mammary epithelial cell lines used included non-tumorigenic diploid MCF-10A, HMEC-hTERT and tumorigenic MDA-MB-468 (basal) and MCF-7 (luminal). […] Blood samples were obtained from normal donor participants. The participants provided written informed consent to IRB protocol #95–054 approved by the Institutional Review Board at MSKCC. The original signed consent is then sent to the research participant’s medical record and a copy of the consent is given to the participant. The EBV-transformed B-lymphocyte cell line (EBV-BL) was generated by transformation of peripheral blood mononuclear cells (PBMC) with the B95.8 strain of EBV, as previously described. Primary T cells were generated from PBMC from two normal donors by non-specific activation with phytohemagglutinin and cultured in RPMI1640 and human serum AB for 4–14 days before use. E14 mES cell line was provided by M. Hooper, Brca1^-/- 236.44 mES cell line was provided by B. H. Koller, Brca2^lex1/lex2 mES cell line was provided by P. Hasty and Lexicon Genetics. E14 wild-type, Brca1^-/- 236.44, and Brca2^lex1/lex2 mES cell lines were cultured in standard ES media. Brca1^-/- 236.44 cells express a BRCA1 peptide deleted for sequences encoded by exon 11 [52], while Brca2^lex1/lex2 cells express a BRCA2 peptide deleted for the terminal exon 27 [53]. Olaparib was synthesized in the MSKCC Organic chemistry core facility. Veliparib and BSI-201 were purchased from Chemie Tek. The compounds were dissolved in DMSO and PBS. For clonogenic survival assays, MCF-10A (1000 cells), HMEC-hTERT (1000 cells), MDA-MB-468 (1500 cells) and mouse ES cell (2000 cells) were seeded, vehicle control or inhibitors were added at the indicated concentration 24 hours after seeding and changed every three days for continuous treatment. At 7–14 days, colonies were fixed with methanol and stained with Giemsa. For EBV-BL (6 × 10^6) and primary T cells (3.6 × 10^6) were continuously exposed to the indicated concentration of drug for 10 days at 0.6 × 10^6 cells/ml. Viable cells were scored by trypan blue exclusion.
(§2) To prepare metaphase spreads, exponentially growing cells were treated with 0.1–0.3 μg/ml of colcemid for 1–6 hr. Cells were collected and incubated in hypotonic solution (0.56% KCl), fixed in methanol: acetic acid (3:1), spotted to slides and air-dried. To measure chromosomal aberrations, the slides were stained with 2% Giemsa/Sorensen’s buffer. To visualize SCEs, the doubling time for each cell type was determined. Cells were incubated with 10 μM BrdU for two cell cycles. After metaphase spreads were prepared, the slides were treated with 0.5 μg/ml Hoechst 33258. The slides were exposed to black light for 20–60 min, incubated at 60°C for 2 hr, and stained in 4–10% Giemsa/Sorensen’s buffer.

MCF-10A [2] = assay: as above; type: cell-based, human
Description: as §1, §2

MCF-10A [3] = assay: Clonogenic survival assay; type: cell-based, human
Procedure: Clonogenic survival was assessed by colony counting at 9 days. […] Viable cells were scored and enumerated by trypan blue exclusion at 7 days. Means with SD are shown (MCF-10A: n = 3, primary T cell 1: n = 2). […] Fold increases of SCE per chromosome compared with no treatment or 0.5 μM cisplatin are shown for each cell type. Approximately 50 metaphases were counted for each cell. Error bars depict the mean with SD. Asterisks designate statistical significance for unpaired t-test at P < 0.0001. C. […] One hundred metaphases were counted for each exposure. Fold increases of chromatid-type aberrations per chromosome compared with no treatment or 0.5 μM cisplatin are shown for each cell type. The y-axis is the number of total chromatid-type aberrations per chromosome for each metaphase counted. Error bars indicate mean with SEM. The P-values were calculated using unpaired t-test.
as §1

EBV-BL [4] = assay: Survival, trypan blue exclusion test of cell viability; type: cell-based, human; conditions: Homo sapiens, 240 h, continuous exposure 10 days, trypan blue exclusion
Description: as §1, with “Olaparib was synthesized in the MSKCC Organic chemistry core facility.” left out

WT E14 mES cells = assay: Clonogenic survival assay, mES cells; type: cell-based; conditions: Mus musculus, read-out: IC50 (clonogenic survival)
Description: as §1, with “Olaparib was synthesized in the MSKCC Organic chemistry core facility.” left out

[5] = test system: Brca1^-/- 236.44 mES cells; assay: Clonogenic survival assay, mES cells; type: cell-based, mouse; conditions: for IC50: Mus musculus, read-out: IC50 (clonogenic survival)
Description: as §1, with “Olaparib was synthesized in the MSKCC Organic chemistry core facility.” left out

[6] = test system: Brca2^lex1/lex2 mES cells; assay: Clonogenic survival assay, mES cells; type: cell-based, mouse; conditions: for IC50: Mus musculus, read-out: IC50 (clonogenic survival)
Description: as §1, with “Olaparib was synthesized in the MSKCC Organic chemistry core facility.” left out

[7] = test system: cellular PARP activity in EBV-BL; assay: Cellular PARP activity assay (PAR levels, HT PARP In vivo Pharmacodynamic Assay); type: cell-based, human
Procedure: Cellular PARP activity was determined by measuring net PAR expression using HT PARP In vivo Pharmacodynamic Assay (Trevigen) as specified by the manufacturer. PAR levels in samples were calculated using standard curves and normalized using protein concentration. Protein concentration was measured with Lowry protocol using RC DC Protein Assay Kits (Bio-Rad).

BRCA-deficient mES cells = test system: BRCA-deficient mES cells; design: method as in PMID 15829967; conditions: cited from earlier work
primary T cell 1 [8] = assay: Sister chromatid exchange (SCE) assay, BrdU differential staining; type: cell-based, human; conditions: 0.5 μM cisplatin alone, first 24hr
Description: as §1, §2

primary T cell 1 [9] = assay: Chromosomal aberrations on metaphase spreads (Giemsa); type: cell-based, human; conditions: 0.5 μM cisplatin alone, 24 hr
Procedure: as §2

primary T cell 1 [10] = assay: Survival, trypan blue exclusion; type: cell-based, human; conditions: first 24 hr, trypan blue exclusion at 7 days, read-out: IC50 (survival), cisplatin alone
Procedure: A. […] Viable cells were scored and enumerated by trypan blue exclusion at 7 days. […] Approximately 50 metaphases were counted for each cell. Error bars depict the mean with SD. Asterisks designate statistical significance for unpaired t-test at P < 0.0001. C. […] One hundred metaphases were counted for each exposure. […] The y-axis is the number of total chromatid-type aberrations per chromosome for each metaphase counted. Error bars indicate mean with SEM. The P-values were calculated using unpaired t-test.

[11] = Homo sapiens, continuous exposure, clonogenic survival assay, read-out: IC50 (cell survival)

## C[C@]1(c2nc3c(C(N)=O)cccc3[nH]2)CCCN1 [veliparib]
EBV-BL [1]; 1.5 μM
  Mean no. SCE / metaphase ± SD: 18.7 ± 4.6
EBV-BL [1]; 10 μM
  Mean no. SCE / metaphase ± SD: 32.2 ± 7.2
MCF-10A [2]; 1.5 μM
  Mean no. SCE / metaphase ± SD: 26.9 ± 6.6
MCF-10A [2]; 10 μM
  Mean no. SCE / metaphase ± SD: 51.3 ± 9.4
MCF-10A [3]; [11]
  IC50: 69.1 µM
EBV-BL [4]; read-out: IC50 (cell survival), EBV-BL
  IC50: 42.5 µM
WT E14 mES cells
  IC50: 1.6 µM
[5]
  IC50: 0.0097 µM
[6]
  IC50: 0.171 µM
[7]
  decrease of PARP activity: ~ 98% and > 99%

## O=C1CCC(=O)N1c1cc(Cc2n[nH]c(=O)c3ccccc23)ccc1F [KU0058684]
BRCA-deficient mES cells
  sensitivity of BRCA-deficient mES cells: marked hypersensitivity

## N.N.[Cl][Pt][Cl] [cisplatin]
MCF-10A [2]; 0.5 μM cisplatin alone, 30 hr
  Fold increase of SCE per chromosome compared with no treatment: 6.3 fold
  Mean no. SCE / chromosome ± SD: 1.03 ± 0.12
  Mean no. SCE / metaphase ± SD: 47.7 ± 5.5
Primary T cell 1 [8]
  Fold increase of SCE per chromosome compared with no treatment: 3.8 fold
  Mean no. SCE / chromosome ± SD: 0.79 ± 0.23
  Mean no. SCE / metaphase ± SD: 36.6 ± 10.8
Primary T cell 1 [9]
  Fold increase of chromatid-type aberrations per chromosome compared with no treatment: 2 fold
  total chromatid-type aberrations / metaphase (mean ± SEM): 0.38 ± 0.07
Primary T cell 1 [9]; 100 metaphases
  chromatid-type gap/break: 36
  chromatid-type radial chromosome: 1
  chromatid-type telomere association: 0
  chromosome-type dicentric: 1
  chromosome-type gap/break: 6
  total chromatid-type aberrations: 38
MCF-10A [3]; cisplatin first 30 hr, colony counting at 9 days, read-out: IC50 (survival), cisplatin alone
  IC50: 3.4 µM
Primary T cell 1 [10]
  IC50: 1.74 µM

## NC(=O)c1ccc(I)c([N+](=O)[O-])c1 [BSI-201]
EBV-BL [1]; 20 μM
  Mean no. SCE / metaphase ± SD: 8.4 ± 3.6
EBV-BL [1]; 40 μM
  Mean no. SCE / metaphase ± SD: 9.4 ± 2.9
EBV-BL [1]; 80 μM
  Mean no. SCE / metaphase ± SD: 16.6 ± 4.2
MCF-10A [2]; 20 μM
  Mean no. SCE / metaphase ± SD: 7.9 ± 2.9
MCF-10A [2]; 40 μM
  Mean no. SCE / metaphase ± SD: 8.6 ± 2.9
MCF-10A [2]; 80 μM
  Mean no. SCE / metaphase ± SD: 9.4 ± 2.6
MCF-10A [3]; [11]
  IC50: 56 µM
EBV-BL [4]; EBV-BL, read-out: IC50 (cell survival)
  IC50: 48.9 µM
WT E14 mES cells; wild-type E14 mES cells
  IC50: 111 µM
[5]; Brca1^-/- 236.44 mES cells
  IC50: 74 µM
[5]; ratio of IC50, wild-type / Brca1^-/- 236.44
  enhanced sensitivity of cells lacking wild-type BRCA1 vs wild-type cells: 1.5 fold
[6]; Brca2^lex1/lex2 mES cells
  IC50: 70 µM
[6]; ratio of IC50, wild-type / Brca2^lex1/lex2
  enhanced sensitivity of cells lacking wild-type BRCA2 vs wild-type cells: 1.6 fold
[7]; EBV-BL, 24 hr, BSI-201 treated, vs untreated cells
  decrease of PARP activity: ~ 60%

## O=C(c1cc(Cc2n[nH]c(=O)c3ccccc23)ccc1F)N1CCCNCC1 [KU0058948]
BRCA-deficient mES cells
  sensitivity of BRCA-deficient mES cells: marked hypersensitivity
